Key:
human hepatocytes = assay: Hepatocytes stability assay (human hepatocytes); type: in vitro ADME; conditions: human hepatocytes; scaled hepatic clearance divided by liver blood flow (well-stirred model, fu assumed unity)
Procedure, shortened: (§1)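 Compound at 1 μM (0.1% DMSO) was incubated with cryopreserved pooled human hepatocytes, 1×10^6 cells/mL in Krebs-Henseleit buffer, at 37 °C, sampled up to 240 min. Parent depletion by LC-MS/MS; half-life from first-order decay gave CLint, scaled to hepatic clearance by well-stirred model (fu assumed 1) and extraction ratio.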

[1] = Hepatocytes stability assay (human hepatocytes); type: in vitro ADME; conditions: both sexes, human, cryopreserved hepatocytes, cryopreserved human hepatocytes (pool of 50 mixed gender); 1 μM test compound; 1×10^6 cell/mL; 37 degrees C; read-out: CLint (μL/min/million cells)
Procedure, shortened: as §1

Sprague-Dawley rats = assay: Assessment of wake promotion in Sprague-Dawley rats (EEG/EMG); type: in vivo, rat; conditions: male Sprague-Dawley rats; PO; 3 mpk; dosed at ZT5; 6-hour post-dose period
Description: Wake promotion was assessed using electroencephalography (EEG) and electromyography (EMG) in adult male Sprague-Dawley rats. All rats (Charles River Laboratories, Raleigh, NC, USA) were intraperitoneally implanted with telemetry devices (F50-EEE, Data Sciences International Inc., MN, USA) under isoflurane anesthesia. For EEG, stainless steel screws were implanted over frontal cortex and parietal cortex, and reference screws were placed over cerebellum. Additionally, an electrode was placed in neck muscle for EMG. Rats were given carprofen post-surgery and underwent a 7 to 10-day recovery period. Rats habituated to the experimental room for 7 days and were maintained on a 12-hour light-dark cycle.
EEG and EMG data were recorded using the DSI telemetry system and Ponemah software (Data Sciences International Inc., MN, USA). Sleep-wake stages were scored both manually and with Somnivore, a supervised machine learning software platform, in 10 second epochs. Records were visually inspected as needed post-processing.
All test compounds were dissolved in 5% DMSO and suspended in 95% saline with 0.5% methylcellulose and 0.5% tween. […] Unless otherwise indicated, all compounds were dosed orally. Recordings for each rat were initiated immediately after dosing and lasted for 6 hours post-dose.
Two key endpoints include wakefulness time and cortical activation time. Wakefulness time is derived from the sleep-wake stage analysis. Cortical activation time is based on the duration in which frontal gamma oscillatory activity (30-100 Hz), a key feature of wakefulness, was elevated relative to a pre-treatment baseline. Mean cortical activation time was computed relative to vehicle treatment for the 6-hour post-dose period.

MDR1 = assay: MDCK-MDR1 permeability assay; type: in vitro ADME; conditions: dog, MDCK-MDR1, MDCK-MDR1 cells; for efflux ratio at 2 h, 3 μM: Papp B→A divided by Papp A→B, read-out: Efflux ratio (ER); for Papp A→B at 2 h, 3 μM: test compound 3 μM, 2 hours at 37 degrees C, apical to basolateral
Procedure, shortened: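 Test compound at 3 μM in HBSS was dosed apical-to-basolateral (with 100 μM Lucifer Yellow) and basolateral-to-apical across MDCK-MDR1 monolayers at 37 °C for 2 h. Receiver and donor samples were quantified by LC-MS/MS. Papp = dQ/dt×1/A×C0, efflux ratio = Papp(B→A)/Papp(A→B), and percent recovery was also derived.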

Structure (SMILES) | Extraction Ratio (ER) (human hepatocytes) | hepatocyte CLint at 1 μM [1] [µL/min/1e6 cells] | Mean cortical activation time (% vehicle treatment) (Sprague-Dawley rats) | efflux ratio at 2 h, 3 μM (MDR1) | Papp A→B at 2 h, 3 μM (MDR1) [×10⁻⁶ cm/s]
Cc1ccnc2c1C1CCC(CC1)OC[C@H]1[C@@H](NS(C)(=O)=O)CCCN1C(=O)CO2 (stereo in doubt) [Compound 12] | 0.59 | 9.7 | 108.70 | 74 | 0.49
CC(C)S(=O)(=O)N[C@H]1CCCN2C(=O)COc3ncccc3C3CCC(CC3)OC[C@@H]12 (stereo in doubt) [Compound 15] | 0.69 | 15 | 107.59 | 100 | 0.34
Cc1ccc2c(c1)C1CCC(CC1)OC[C@H]1[C@@H](NS(C)(=O)=O)CCCN1C(=O)CO2 (stereo in doubt) [Compound 17] | 0.53 | 7.5 | 212.31 | 40 | 0.84
O=C1COc2nccnc2[C@H]2CC[C@H](CC2)OCC2[C@@H](NS(=O)(=O)C3CC3)CCCN12 (stereo in doubt) [Compound 65] | <0.22 | < 1.9 | 121.28 | > 100 | 0.1
CC(C)S(=O)(=O)N[C@H]1CCCN2C(=O)COc3nccnc3[C@H]3CC[C@H](CC3)OCC12 (stereo in doubt) [Compound 66] | <0.22 | < 1.9 | 141.30 | 88 | 0.22
Cc1ncnc2c1[C@H]1CC[C@H](CC1)OCC1[C@@H](NS(=O)(=O)C3CC3)CCCN1C(=O)CO2 (stereo in doubt) [Compound 68] | 0.37 | 3.9 | 157.14 | 72 | 0.24
Cc1ccnc2c1[C@H]1CC[C@H](CC1)OCC1[C@@H](NS(=O)(=O)C3CC3)CCN1C(=O)CO2 (stereo in doubt) [Compound 92] | 0.78 | 24 | 97.94 | 18 | 3.4
Cc1ccnc2c1[C@H]1CC[C@H](CC1)OCC1[C@@H](NS(=O)(=O)C(C)C)CCN1C(=O)CO2 (stereo in doubt) [Compound 93] | 0.75 | 20 | 138.14 | 11 | 4.7
CS(=O)(=O)N[C@H]1CCCN2C(=O)COc3ccc(O)cc3[C@H]3CC[C@H](CC3)OCC12 (stereo in doubt) [Compound 96] | 0.25 | 2.3 | 74.48 | 9.2 | 0.53
O=C1COc2ncncc2[C@H]2CC[C@H](CC2)OCC2[C@@H](NS(=O)(=O)C3CC3)CCCN12 (stereo in doubt) [Compound 97] | 0.43 | 5.2 | 79.25 | 44 | 0.42
CC(C)S(=O)(=O)N[C@H]1CCN2C(=O)COc3ncccc3[C@H]3CC[C@H](CC3)OCC12 (stereo in doubt) [Compound 101] | 0.74 | 19 | 109.66 | 14 | 3.9

— patent publication US12006330B2, “Substituted macrocyclic compounds and related methods of treatment” (Alkermes, Inc., priority 2020, dated 2024)
